The values that follow are results of earlier work, collected in patent US20240009433A1, “METHODS FOR CONTINUOUS ORAL DRUG DELIVERY” (SynAgile Corporation, priority 2020, published 2024).

For series [1] the following is noted: in vivo.
For series [2] the following is noted: in vivo. The source holds these as a separate data set.
The conditions of series [3]: in vivo. This is another data set of the same source.

Turning to `CCN(CC)C(=O)/C(C#N)=C/c1cc(O)c(O)c([N+](=O)[O-])c1` [Entacapone], in series [1], the plasma half-life was 0.4 to 0.7 h. In addition, the “crossing of the blood-brain barrier” value in series [2] is on record as “does not cross the blood-brain barrier”.
Take `Cc1ccc(C(=O)c2cc(O)c(O)c([N+](=O)[O-])c2)cc1` [Tolcapone]: the plasma half-life in series [1] is 2 to 3 h. The “crossing of the blood-brain barrier” value in series [2] is recorded as “crosses the barrier”. Moreover, the hepatotoxicity result in series [3] was “use is limited by its hepatotoxicity”.
